Calls of active or inactive are those of the source. A value given as a limit tells only on which side of the number the result lay.

Consider 36 compounds from ChEMBL document CHEMBL1201862, “PubChem BioAssay data set” (2004).

Some targets named below: Cytochrome P450 2D6 (Homo sapiens, UniProt P10635); Cytochrome P450 2C9 (Homo sapiens, UniProt P11712); Cytochrome P450 3A4 (Homo sapiens, UniProt P08684).
Test [1] addresses T1, Polyadenylate-binding protein 1 (Homo sapiens, UniProt P11940). The test is described as follows: MLLE domain peptide-binding blockers, IC50 – biochemical, fluorescence polarization, FITC-PAM2 peptide, dose response (AID 602259). The class given is functional. The following applies: read-out: IC50_Mean. For orientation: In fluorescence polarisation assays a small probe gives low polarisation when free and higher when bound to something large.

For test [2], the target named is T1, Polyadenylate-binding protein 1. In words: MLLE binding blockers, Cy5 peptide tracer – biochemical, fluorescence polarization, Cy5-PAM2 peptide, secondary, miRNA deadenylation inhibitor project, dose response (AID 602260). The following applies: read-out: IC50_Mean. The class given is functional.
For test [3], the target named is T2, RNA-binding protein pos-1 (Caenorhabditis elegans, UniProt G5EF15).
T2 sequence (G5EF15 whole entry): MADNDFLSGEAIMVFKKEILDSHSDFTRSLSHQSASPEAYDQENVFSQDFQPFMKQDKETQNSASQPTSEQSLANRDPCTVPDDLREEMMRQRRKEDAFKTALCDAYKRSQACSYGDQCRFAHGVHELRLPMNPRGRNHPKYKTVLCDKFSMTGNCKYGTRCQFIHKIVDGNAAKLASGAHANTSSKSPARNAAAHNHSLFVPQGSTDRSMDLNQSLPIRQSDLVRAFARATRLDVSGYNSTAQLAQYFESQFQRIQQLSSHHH
In words: disruptors of C. elegans POS-1 RNA interaction – biochemical, fluorescence polarization, dose response (AID 1964).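 Further: purified POS-1 fused to maltose binding protein made in E. coli; potency of compounds blocking POS-1 binding to fluorescent RNA.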

In test [4] the target is T3, Zinc finger protein mex-5 (Caenorhabditis elegans, UniProt Q9XUB2).
T3 sequence (Q9XUB2 whole entry): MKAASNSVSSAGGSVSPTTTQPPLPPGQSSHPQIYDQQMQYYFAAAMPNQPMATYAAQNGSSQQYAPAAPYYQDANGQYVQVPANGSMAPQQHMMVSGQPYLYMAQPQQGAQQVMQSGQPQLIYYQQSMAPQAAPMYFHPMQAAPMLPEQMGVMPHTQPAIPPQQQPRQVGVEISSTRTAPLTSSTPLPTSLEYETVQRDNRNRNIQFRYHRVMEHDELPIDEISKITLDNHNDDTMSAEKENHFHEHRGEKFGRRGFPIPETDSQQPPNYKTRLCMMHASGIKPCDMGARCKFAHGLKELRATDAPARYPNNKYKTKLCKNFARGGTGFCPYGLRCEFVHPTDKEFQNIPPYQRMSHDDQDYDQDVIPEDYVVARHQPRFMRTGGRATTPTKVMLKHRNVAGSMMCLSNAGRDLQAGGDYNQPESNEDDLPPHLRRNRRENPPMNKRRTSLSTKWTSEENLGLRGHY
The test is described as follows: potency of MEX-5 RNA-binding blockers – biochemical, C. elegans, fluorescence polarization, dose response (AID 1960).

For test [5], the target named is T4, Heat shock factor protein 1 (Mus musculus, UniProt P38532).
T4 sequence (P38532 whole entry): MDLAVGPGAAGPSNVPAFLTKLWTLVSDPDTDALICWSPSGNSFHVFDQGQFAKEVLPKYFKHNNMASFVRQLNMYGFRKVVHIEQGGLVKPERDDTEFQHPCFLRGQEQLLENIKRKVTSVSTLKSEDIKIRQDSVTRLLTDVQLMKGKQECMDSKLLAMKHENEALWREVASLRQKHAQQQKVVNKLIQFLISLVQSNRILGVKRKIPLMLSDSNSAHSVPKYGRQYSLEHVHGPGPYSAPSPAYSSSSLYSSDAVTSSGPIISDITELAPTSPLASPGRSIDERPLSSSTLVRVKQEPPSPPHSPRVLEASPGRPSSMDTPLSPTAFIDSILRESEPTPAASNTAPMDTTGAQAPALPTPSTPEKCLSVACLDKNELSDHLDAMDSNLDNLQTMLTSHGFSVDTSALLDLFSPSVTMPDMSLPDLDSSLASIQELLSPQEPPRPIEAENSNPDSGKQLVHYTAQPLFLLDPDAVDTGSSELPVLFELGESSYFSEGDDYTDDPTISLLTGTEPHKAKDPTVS
In words: enhancement of HSF1-driven luciferase signal – cell-based, NIH3T3, luminescence, dose retest, confirmation (AID 435004).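 Further: stress induced by proteasome inhibitor MG132 added 30 min after compound; luciferase reporter driven by HSF1 response element in NIH3T3 cells; actives raise luminescence as potentiators of the MG132 stress response.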 The class given is functional.

A further test has as its target T5, Cytochrome P450 1A2 (Homo sapiens, UniProt P05177).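 Further: PubChem cytochrome P450 panel assay, CYP1A2 panel member.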
T5 sequence (P05177 whole entry): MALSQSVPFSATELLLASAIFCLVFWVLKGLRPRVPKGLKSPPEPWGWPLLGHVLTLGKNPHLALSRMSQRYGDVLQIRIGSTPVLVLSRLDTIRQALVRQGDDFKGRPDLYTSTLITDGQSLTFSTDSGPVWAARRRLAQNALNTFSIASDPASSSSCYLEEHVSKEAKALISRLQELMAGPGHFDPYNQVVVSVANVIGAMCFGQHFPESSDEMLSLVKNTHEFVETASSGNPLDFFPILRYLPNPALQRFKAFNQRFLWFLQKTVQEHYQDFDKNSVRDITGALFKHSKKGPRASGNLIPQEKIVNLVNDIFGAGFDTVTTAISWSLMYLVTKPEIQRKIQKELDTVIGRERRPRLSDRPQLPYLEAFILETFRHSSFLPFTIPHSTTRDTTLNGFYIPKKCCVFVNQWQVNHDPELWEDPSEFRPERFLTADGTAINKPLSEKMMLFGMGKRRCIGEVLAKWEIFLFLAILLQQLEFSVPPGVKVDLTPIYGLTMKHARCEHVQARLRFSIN

A further test has as its target Cytochrome P450 2C19 (Homo sapiens, UniProt P33261). The test is described as follows: Cytochrome panel assay with activity outcomes. Panel member name: p450-cyp2c19 Compounds with AC50 equal or less than 10 uM are considered active. The class given is functional. As to conditions: read-out: AC50.

Chain of Cytochrome P450 2D6 (P10635 whole entry, the tested form may be a part): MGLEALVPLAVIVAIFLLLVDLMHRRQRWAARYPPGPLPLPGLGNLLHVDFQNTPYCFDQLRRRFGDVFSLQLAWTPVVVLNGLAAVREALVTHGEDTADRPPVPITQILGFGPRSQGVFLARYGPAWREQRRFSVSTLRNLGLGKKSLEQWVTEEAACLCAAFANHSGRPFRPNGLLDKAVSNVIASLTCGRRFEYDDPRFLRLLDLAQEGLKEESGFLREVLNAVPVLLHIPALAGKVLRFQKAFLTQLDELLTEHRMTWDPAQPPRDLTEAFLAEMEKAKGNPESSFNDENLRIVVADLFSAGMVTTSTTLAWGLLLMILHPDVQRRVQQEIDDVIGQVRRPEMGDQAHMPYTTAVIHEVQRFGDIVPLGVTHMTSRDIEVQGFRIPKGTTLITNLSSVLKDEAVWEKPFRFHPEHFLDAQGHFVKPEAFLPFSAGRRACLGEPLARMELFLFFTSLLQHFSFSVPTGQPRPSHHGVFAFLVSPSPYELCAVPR
Chain of Cytochrome P450 2C19 (P33261 whole entry): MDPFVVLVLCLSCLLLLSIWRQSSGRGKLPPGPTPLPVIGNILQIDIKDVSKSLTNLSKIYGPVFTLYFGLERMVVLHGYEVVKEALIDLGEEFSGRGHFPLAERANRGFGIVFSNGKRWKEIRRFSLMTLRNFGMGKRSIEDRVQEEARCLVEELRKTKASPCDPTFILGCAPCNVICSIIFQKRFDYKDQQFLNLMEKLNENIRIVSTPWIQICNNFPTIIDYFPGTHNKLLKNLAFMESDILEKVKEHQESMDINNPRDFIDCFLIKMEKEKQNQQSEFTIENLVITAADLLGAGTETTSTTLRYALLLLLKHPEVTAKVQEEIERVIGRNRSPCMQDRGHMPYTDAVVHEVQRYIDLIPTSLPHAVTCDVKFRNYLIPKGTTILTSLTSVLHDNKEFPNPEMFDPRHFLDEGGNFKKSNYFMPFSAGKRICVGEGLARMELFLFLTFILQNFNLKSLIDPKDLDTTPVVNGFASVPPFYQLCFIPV
Chain of Cytochrome P450 2C9 (P11712 whole entry, the tested form may be a part): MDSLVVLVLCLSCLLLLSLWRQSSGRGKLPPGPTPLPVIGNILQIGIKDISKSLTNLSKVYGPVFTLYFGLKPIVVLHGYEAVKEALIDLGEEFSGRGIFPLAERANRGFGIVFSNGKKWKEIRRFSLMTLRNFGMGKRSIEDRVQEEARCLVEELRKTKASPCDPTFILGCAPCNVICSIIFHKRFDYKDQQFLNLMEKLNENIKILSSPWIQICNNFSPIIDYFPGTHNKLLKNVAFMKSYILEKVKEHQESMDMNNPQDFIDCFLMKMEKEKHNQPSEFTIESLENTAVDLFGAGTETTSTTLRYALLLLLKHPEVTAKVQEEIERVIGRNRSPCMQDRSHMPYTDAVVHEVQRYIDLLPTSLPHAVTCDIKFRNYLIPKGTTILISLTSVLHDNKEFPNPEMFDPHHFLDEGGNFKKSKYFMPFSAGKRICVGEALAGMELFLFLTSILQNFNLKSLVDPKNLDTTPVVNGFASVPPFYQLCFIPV
T1 sequence (P11940 whole entry, the tested form may be a part): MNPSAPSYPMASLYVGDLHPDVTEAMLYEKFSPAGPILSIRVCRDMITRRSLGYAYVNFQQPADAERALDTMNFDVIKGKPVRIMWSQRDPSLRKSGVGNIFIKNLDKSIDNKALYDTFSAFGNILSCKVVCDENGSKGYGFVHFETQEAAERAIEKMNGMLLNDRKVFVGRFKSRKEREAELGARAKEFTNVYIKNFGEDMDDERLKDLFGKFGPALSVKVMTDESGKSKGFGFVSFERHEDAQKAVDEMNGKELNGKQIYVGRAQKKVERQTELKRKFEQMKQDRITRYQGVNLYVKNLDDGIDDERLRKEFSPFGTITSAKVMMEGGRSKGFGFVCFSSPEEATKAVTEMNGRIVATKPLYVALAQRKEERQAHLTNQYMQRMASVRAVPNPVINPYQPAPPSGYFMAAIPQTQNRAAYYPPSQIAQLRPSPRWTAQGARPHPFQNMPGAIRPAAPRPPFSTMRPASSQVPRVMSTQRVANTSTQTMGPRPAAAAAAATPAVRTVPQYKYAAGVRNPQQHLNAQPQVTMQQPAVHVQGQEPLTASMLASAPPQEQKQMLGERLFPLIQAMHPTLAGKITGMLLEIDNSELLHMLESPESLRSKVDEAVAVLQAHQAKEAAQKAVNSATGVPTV
Chain of Cytochrome P450 3A4 (P08684 whole entry, the tested form may be a part): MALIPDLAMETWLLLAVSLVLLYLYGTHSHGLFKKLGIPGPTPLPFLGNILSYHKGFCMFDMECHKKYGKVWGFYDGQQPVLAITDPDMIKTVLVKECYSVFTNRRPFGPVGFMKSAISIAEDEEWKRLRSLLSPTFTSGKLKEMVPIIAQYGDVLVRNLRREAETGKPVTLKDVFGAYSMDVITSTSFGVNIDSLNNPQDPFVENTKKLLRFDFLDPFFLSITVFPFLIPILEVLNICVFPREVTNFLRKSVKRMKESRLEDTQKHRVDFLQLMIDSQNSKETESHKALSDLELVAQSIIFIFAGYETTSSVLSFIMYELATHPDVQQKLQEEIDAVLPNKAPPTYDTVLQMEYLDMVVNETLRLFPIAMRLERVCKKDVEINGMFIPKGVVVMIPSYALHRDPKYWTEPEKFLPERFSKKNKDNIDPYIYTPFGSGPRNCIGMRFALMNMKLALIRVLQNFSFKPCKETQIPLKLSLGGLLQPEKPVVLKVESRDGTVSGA

For `COCCn1c(=O)c(-c2ccc(Cl)cc2)nc2cnc(N(C)C)nc21`, the AC50 (commonly the concentration at which the activity in the assay is half-maximal) on Cytochrome P450 2D6 is 0.0794 µM (inconclusive). With `COc1ccc(CNc2ccnc(-c3cccc(C#N)c3)n2)c(OC)c1`, the AC50 at Cytochrome P450 2D6 is 12.6 µM (inconclusive); at Cytochrome P450 2C9, 0.501 µM (inconclusive). Regarding `O=C(NCSc1ccccc1)c1ccccc1`, the IC50 in [1] and in test [2] was > 66 µM (inactive) throughout. Take `COC(=O)CNC(=O)C1Nc2ccc(OC(F)(F)F)cc2C2C=CCC12` (centres undefined): the EC50 in test [3] and in [4] was > 300 µM (not active) throughout.

For `CC(=O)Nc1ccc(S(=O)(=O)Nc2nnc(CC(C)(C)C)s2)cc1`, the IC50 in test [1] and in test [2] was > 66 µM (inactive) throughout.

Consider `Cc1n[nH]c(O)c1N=Nc1ccc(S(N)(=O)=O)cc1`, for which the results for the EC50 in [3] and in [4] were 78.9 µM (active) and 9.43 µM (inconclusive), respectively. In the same order, the values of `CC1(C)Cc2c(cnn2-c2cccc(F)c2)C(NC(=O)CSc2ccccn2)C1` (centres undefined) are > 300 µM (not active) and > 150 µM (not active).

On to `COc1cccc(-c2nc(N3CCN(c4ccccc4)CC3)c3ccccc3n2)c1O`, for which, in test [5], the EC50 (in general, the concentration needed to bring the measured effect to its halfway point) was > 260 µM (inactive).

Consider `Cc1onc(-c2ccccc2)c1C(=O)N=C(N)c1ccc(C(F)(F)F)cc1`, for which, in test [5], the EC50 was > 260 µM (inactive). For the compound `CCc1ccc(Nc2ncccc2C#N)cc1`, the results for the AC50 on Cytochrome P450 3A4 and at Cytochrome P450 2D6 were 28.2 µM (inconclusive) and 20 µM (inconclusive), respectively. For the compound `COCCNC(=O)C1Nc2ccc(C(F)(F)F)cc2C2C=CCC12` (centres undefined), the EC50 in [3] and in test [4] was > 300 µM (not active) throughout. As for `S=C(Nc1ccc2nc(-c3ccccn3)c(-c3ccccn3)nc2c1)N1CCOCC1`, the IC50 in test [1] was 40.3 µM (inactive); in test [2], > 66 µM (inactive). Regarding `O=C(c1csnn1)N1CCC2(CC1)CCN(c1ccccc1)CC2`, the AC50 at Cytochrome P450 2D6 was 7.94 µM (inconclusive); at Cytochrome P450 1A2, 15.8 µM (inconclusive).

Consider `COc1ccc2[nH]cc(CCNc3cc(-c4cccnc4)ncn3)c2c1`, for which, at Cytochrome P450 2D6, the AC50 is 20 µM (inconclusive). Turning to `COCCCn1c(C(=O)NC2CCCCC2C)cc2c(=O)n3cccc(C)c3nc21` (centres undefined), the EC50 in test [5] was > 260 µM (inactive). For `COc1ncnc2c1N=C1CC(C)(C)CC(NCCC(=O)O)=C1S2`, the EC50 in [3] was > 300 µM (not active); in test [4], 13.8 µM (active).

Consider `CN(Cc1nnc(-c2ccc(F)cc2)o1)c1ccccc1`, for which the EC50 in [5] was > 260 µM (inactive). Consider `CC(C)OC(=O)c1nn2c(C(F)(F)F)cc(-c3ccc(Br)o3)nc2c1Br`, for which the EC50 in test [3] and in test [4] was > 300 µM (not active) in each case.

`CC(C)Cn1c(SCc2nc(O)c3ccccc3n2)nc2ccccc2c1=O`: on Cytochrome P450 2D6, the AC50 is 3.98 µM (inconclusive). Turning to `FC(F)(F)c1cc(CN2CCC3(CCNCC3)CC2)cc(C(F)(F)F)c1`, the AC50 is 31.6 µM (inconclusive) on Cytochrome P450 3A4 and 25.1 µM (inconclusive) at Cytochrome P450 2D6.

Turning to `COc1ccc(NC(=O)Nc2sc(NS(=O)(=O)c3ccccc3)nc2C)cc1`, the IC50 in test [1] and in test [2] was > 66 µM (inactive) each time.

On to `Cc1cccc(N=Nc2c(O)[nH]c3ccc(Br)cc23)c1`, for which the EC50 in test [3] is 68.3 µM (active); in [4], 26.9 µM (inconclusive). Take `CC(=O)c1cccc(NC(=S)NC(=O)c2ccccc2Br)c1`: the IC50 in test [1] and in test [2] was > 66 µM (inactive) each time. For `Cc1[nH]c2ccccc2c1/C=C(\C#N)C(=O)NCC1CCCO1` (centres undefined), the EC50 in test [5] is 53.1 µM (active). With `CCc1c(O)nc(SCc2nc(O)c3ccccc3n2)nc1O`, the IC50 in test [1] and in test [2] was > 66 µM (inactive) throughout. On to `COC(=O)[C@@]1(Cc2ccc(OC)cc2)[C@H]2c3cc(C(=O)N(C)C)n(CCc4c[nH]c5ccc(O)cc45)c3C[C@H]2CN1C(=O)c1ccccc1`, for which the AC50 at Cytochrome P450 2D6 is 15.8 µM (inconclusive); on Cytochrome P450 2C19 it was 25.1 µM (inconclusive).

On to `Cc1ccc(Nc2ccc([N+](=O)[O-])ccc2=O)cc1`, for which the EC50 in test [3] and in test [4] was > 300 µM (not active) each time. `O=C(NCCc1ccccc1)c1noc2c1CCc1ccccc1-2`: the AC50 is 2.51 µM (inconclusive) on Cytochrome P450 2D6 and 7.08 µM (inconclusive) on Cytochrome P450 2C9. For the compound `Cc1ccc2nc(-c3cccnc3)c(NC3CCCCC3)n2c1`, the IC50 is 34.7 µM (inactive) in test [1] and 41.4 µM (inactive) in [2]. Turning to `CCC1(c2ccccc2)NC(=O)N(CC(=O)NCc2ccccc2OC)C1=O` (centres undefined), the EC50 in test [5] is > 260 µM (inactive). In the case of `CCC(=O)/C=C1/Sc2ccc(OC)cc2N1CCO`, the IC50 in [1] and in test [2] was > 66 µM (inactive) each time.

In the case of `FC(F)(F)C(F)(F)C(F)(F)c1nc2nc(Cl)c(Cl)[nH]c-2n1`, the IC50 in [1] and in [2] was > 66 µM (inactive) in each case.

For the compound `Cc1nnc(O)nc1N/N=C/c1ccc(O)c([N+](=O)[O-])c1`, the results for the EC50 in [3] and in test [4] were 169 µM (active) and 65.5 µM (active), respectively. As to `C/C(=N/OC(=O)c1cccc(Cl)c1)c1nccs1`, the AC50 is 35.5 µM (inconclusive) on Cytochrome P450 2D6, 20 µM (inconclusive) on Cytochrome P450 2C19 and 31.6 µM (inconclusive) at Cytochrome P450 1A2. As for `CC(=O)c1cccc(/N=C/c2c(O)oc3ccccc3c2=O)c1`, the EC50 in test [5] was 2.8 µM (active). With `COC1=C(OC)C(=O)c2ccccc2C1=O`, the AC50 is 39.8 µM (inconclusive) at Cytochrome P450 2D6, 31.6 µM (inconclusive) on Cytochrome P450 2C19 and 39.8 µM (inconclusive) at Cytochrome P450 2C9.
